Values joined by “and” are separate entries in the source; they are usually repeats but may differ in a detail not shown here. Equal values may be shown once. “Also recorded” adds a separate entry of the source. Read-outs that look alike come from different tables or passages of the source.
What was measured:
[1] = rats; cited from earlier work
[2] = Food effect study: single oral 450 mg MNTX fasted vs high-fat breakfast, 2-period crossover; type: in vivo, human; settings: for Cmax / half-life / AUC(0-inf) / AUC(0-t) / Tmax: both sexes, human, plasma, oral, 450 mg; for half-life: harmonic mean; for Tmax: median
Description: Presented herein is a single-dose, 2-period crossover study to evaluate the effect of a standard high-fat breakfast on the pharmacokinetics of a single oral dose of 450 mg (3×150 mg tablets) MNTX. The study had 2 arms and 2 dosing periods.
Thirty-two subjects were enrolled into this study. Subjects were randomized at a 1:1 ratio to Arm 1 (fasted then fed) or Arm 2 (fed then fasted). Randomization was stratified by sex. Each subject received a single dose of MNTX 450 mg (administered as 3×150 mg tablets) with a high fat meal (MNTX fed) and after fasting (MNTX fasted). The fasted/fed study periods were separated by 7 days. The sequence of fasted/fed or fed/fasted dosing on Days 1 and 8 was determined by randomization on Day 1.
For the fasted treatment, a single 450 mg (3×150 mg) oral dose of MNTX tablets was administered to subjects following a supervised overnight fast of at least 10 hours. No food was allowed for at least 4 hours post dose.
For the fed treatment, a standard high-fat breakfast was given to the subjects following an overnight fast of at least 10 hours. A single 450 mg (3×150 mg) oral dose of MNTX tablets was administered to subjects 30 minutes after the subject began the meal. No food was allowed for at least 4 hours after drug administration.
Subjects were administered a single oral dose of MNTX tablets (450 mg) on Day 1 and Day 8 after a high fat meal or fasting as follows: (a) MNTX 450 mg (orally as 3×150 mg tablets) administered after a high-fat (high caloric) breakfast, or (b) MNTX 450 mg (orally as 3×150 mg tablets) administered after fasting.
Subjects received a single dose of MNTX 450 mg administered orally as 3×150 mg tablets immediately after a high fat/high calorie meal (MNTX fed) and after fasting (MNTX fasted). A 7-day washout period separated the fasted/fed crossover periods. The sequence of fasted/fed or fed/fasting dosing on Days 1 and 8 was determined by randomization on Day 1. Subjects fasted overnight for a minimum of 10 hours prior to administration of a high fat meal with the single dose of study drug (MNTX fed) or 10 hours prior to administration of the single dose of study drug (MNTX fasted).
Each dose on Day 1 and 8 was administered with 240 mL of room temperature drinking water, and the subjects were instructed to drink all of the water. No food was permitted for 4 hours after drug administration and water was allowed as desired except for 1 hour before and after drug administration. Approximately 4 hours after dosing, a normal meal schedule could be resumed.
A high fat/high caloric meal includes fat content of approximately 50% of total calories in the meal (approximately 800 to 1000 calories total). Subjects receiving the MNTX fed treatment regimen were required to fast for at least 10 hours before breakfast and then to eat the protocol-specified breakfast starting 30 minutes before dosing. The high-fat, high caloric breakfast consisted of the following: • Two slices of toast with ½ pat of butter on each slice. • Two eggs fried in butter. • Two strips of bacon. • Four ounces (113 g) hash brown potatoes. • Eight ounces (240 mL) of whole milk.
Plasma concentrations of MNTX were determined using a validated analytical procedure involving high performance liquid chromatography with tandem quadrupole mass spectrometric detection. Blood samples for determination of MNTX concentrations in plasma were obtained predose (approximately 1 hour prior to dose administration) on Day 1, and at 0.25, 0.5, 1, 2, 4, 6, 8, 10, 12, 16, 24, 36, 48, 72, 96, 120, 144 and 168 hours following each dose administration on Days 1 and 8. Pharmacokinetic parameters that were measured and calculated include the following: […]

[3] = cited from earlier work
[4] = 450 mg Single-Dose Fasted, mean
[5] = orally administered MNTX, other studies

C[N@+]1(CC2CC2)CC[C@]23c4c5ccc(O)c4O[C@H]2C(=O)CC[C@@]3(O)[C@H]1C5.[Br-] [MNTX, (R)—N-(cyclopropylmethyl) noroxymorphone methobromide]
estimated bioavailability after oral administration [1]: less than 1% | CL/F [2, 4]: 1608644 mL/h | λz [2, 4]: 0.04 h⁻¹ and 0.0403 h⁻¹ | CL/F ([2]; 450 mg Single-Dose Fed, mean): 2961340 mL/h | λz ([2]; 450 mg Single-Dose Fed, mean): 0.04 h⁻¹ and 0.0413 h⁻¹ | AUC0-∞ Geometric Mean Ratio, fasted divided by fed ([2]; 450 mg single dose): 198.17% | AUClast Geometric Mean Ratio, fasted divided by fed ([2]; 450 mg single dose): 199.28% | AUClast and AUC0-∞ higher in fasted as compared with fed subjects ([2]; 450 mg single dose): approximately 2 fold | Cmax Geometric Mean Ratio, fasted divided by fed ([2]; 450 mg single dose): 273.6% and 273.62% | arithmetic mean Cmax in fed subjects as share of that in fasted subjects ([2]; 450 mg single dose): ~28% | decrease of systemic exposure by food (as determined by AUC and Cmax) ([2]; 450 mg single dose): approximately half to three quarters | systemic exposure (AUClast and AUC0-∞) lower in fed than in fasted subjects ([2]; 450 mg single dose): approximately 50% | bioequivalence under fed and fasted conditions (80% to 125% range) ([2]; 450 mg single dose, Cmax, AUClast, AUC0-∞): nonbioequivalence; also recorded: non-bioequivalent; also recorded: not bioequivalent | deaths, SAEs, TEAEs resulting in study discontinuation ([2]; 450 mg single doses): no deaths, SAEs, or TEAEs resulting in study discontinuation | effect on cardiac safety parameters or vital signs ([2]; 450 mg single doses): No significant effect | intensity of TEAEs ([2]; 450 mg single doses): mild | relation of TEAEs to MNTX (investigator) ([2]; 450 mg single doses): No TEAEs were considered by the investigator to be related to MNTX | subjects with headache (most frequent TEAE) ([2]; 450 mg single doses, 32 subjects): 6% | subjects experiencing at least 1 TEAE ([2]; 450 mg single doses, 32 subjects, whole study): 16% | Cmax ([2]; 450 mg Single-Dose Fasted, arithmetic mean, read-out: Cmax): 45.5 ng/mL | half-life ([2]; 450 mg Single-Dose Fasted): ~17 h | AUC(0-inf) ([2]; 450 mg Single-Dose Fasted, mean, read-out: AUC0-∞): 364 ng·h/mL | AUC(0-t) ([2]; 450 mg Single-Dose Fasted, mean, read-out: AUClast): 361 ng·h/mL | Tmax ([2]; 450 mg Single-Dose Fasted): 2 h | Cmax ([2]; 450 mg Single-Dose Fed, arithmetic mean, read-out: Cmax): 12.9 ng/mL | half-life ([2]; 450 mg Single-Dose Fed): ~17 h | AUC(0-inf) ([2]; 450 mg Single-Dose Fed, mean, read-out: AUC0-∞): 169 ng·h/mL | AUC(0-t) ([2]; 450 mg Single-Dose Fed, mean, read-out: AUClast): 166 ng·h/mL | Tmax ([2]; 450 mg Single-Dose Fed): 4 h | AUC(0-inf) ([2]; 450 mg single dose, Fasted, read-out: AUC0-∞, Geometric Least Squares Mean): 317 ng·h/mL | AUC(0-t) ([2]; 450 mg single dose, Fasted, read-out: AUClast, Geometric Least Squares Mean): 314 ng·h/mL | Cmax ([2]; 450 mg single dose, Fasted, read-out: Cmax, Geometric Least Squares Mean): 33.4 ng/mL | AUC(0-inf) ([2]; 450 mg single dose, Fed, read-out: AUC0-∞, Geometric Least Squares Mean): 160 ng·h/mL | AUC(0-t) ([2]; 450 mg single dose, Fed, read-out: AUClast, Geometric Least Squares Mean): 158 ng·h/mL | Cmax ([2]; 450 mg single dose, Fed, read-out: Cmax, Geometric Least Squares Mean): 12.2 ng/mL | subjects with TEAEs ([2]; fasted dosing period): Four | subjects with TEAEs ([2]; fed dosing period): 3 subjects | tolerability ([2]; single dose of MNTX 450 mg): well tolerated | bioavailability (in words) [3, 5]: low bioavailability | plasma protein binding (in words) [3, 5]: low plasma protein binding | tissue distribution (in words) [3, 5]: limited tissue distribution outside the GI tract | increase of systemic absorption by fasting ([3]; prior study): approximately 25%

Reference: patent US20190231771A1, “METHODS FOR TREATMENT AND PREVENTION OF OPIOID INDUCED CONSTIPATION USING ORAL COMPOSITIONS OF METHYLNALTREXONE” (Salix Pharmaceuticals, Ltd., priority 2011, published 2019)
